Results published in patent US20250059188A1, “ARYLSULPHONAMIDE COMPOUNDS” (Anaxis Pharma Pty Ltd, priority 2021, published 2025).

Assays:
Settings in all cases: equilibrium dissociation constant
[1] = target: human RIPK1 (Homo sapiens (Human), UniProt Q13546); assay: KINOMEscan binding assay, human RIPK1
Procedure, shortened: (§1)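 Active-site competition binding: DNA-tagged kinase (T7 phage fusion from BL21-derived E. coli lysate, or HEK-293-expressed) captured on immobilized-ligand beads, with bound kinase in the eluate quantified by qPCR. Compounds ran as 11-point 3-fold dilutions, 1% DMSO, top 30,000 nM for most. Kd came from a Hill fit (slope −1).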

[2] = target: mouse MLKL (full length) (Mus musculus (Mouse), UniProt Q9D2Y4); assay: KINOMEscan binding assay, mouse MLKL (full length)
Protocol: Binding affinity of the test compounds for human MLKL (full length), mouse MLKL (full length), human RIPK1 and human RIPK3 was determined using the KINOMEscan™ technology developed by DiscoverX (USA; http://www.discoverx.com). The assay was conducted according to manufacturer instructions.
Kinase assays. For most assays, kinase-tagged T7 phage strains were grown in parallel in 24-well blocks in an E. coli host derived from the BL21 strain. E. coli were grown to log-phase and infected with T7 phage from a frozen stock (multiplicity of infection=0.4) and incubated with shaking at 32° C. until lysis (90-150 minutes). The lysates were centrifuged (6,000×g) and filtered (0.2 μm) to remove cell debris. The remaining kinases were produced in HEK-293 cells and subsequently tagged with DNA for qPCR detection. […] The liganded beads were blocked with excess biotin and washed with blocking buffer (SeaBlock (Pierce), 1% BSA, 0.05% Tween 20, 1 mM DTT) to remove unbound ligand and to reduce non-specific phage binding. […] All reactions were performed in polypropylene 384-well plates in a final volume of 20 μL. […] The kinase concentration in the eluates was measured by qPCR.
An 11-point 3-fold serial dilution of each test compound was prepared in 100% DMSO at 100× final test concentration and subsequently diluted to 1× in the assay (final DMSO concentration=1%). Most Kos were determined using a compound top concentration=30,000 nM.
KD for each test compound was calculated with a standard dose-response curve using the Hill equation (equation (1)): […]
The Hill Slope was set to −1.
Curves were fitted using a non-linear least square fit with the Levenberg-Marquardt algorithm.

[3] = target: human MLKL (full length) (Homo sapiens (Human), UniProt Q8NB16); assay: KINOMEscan binding assay, human MLKL (full length)
Procedure, shortened: as §1

Chain of human MLKL (full length) (Q8NB16 whole entry): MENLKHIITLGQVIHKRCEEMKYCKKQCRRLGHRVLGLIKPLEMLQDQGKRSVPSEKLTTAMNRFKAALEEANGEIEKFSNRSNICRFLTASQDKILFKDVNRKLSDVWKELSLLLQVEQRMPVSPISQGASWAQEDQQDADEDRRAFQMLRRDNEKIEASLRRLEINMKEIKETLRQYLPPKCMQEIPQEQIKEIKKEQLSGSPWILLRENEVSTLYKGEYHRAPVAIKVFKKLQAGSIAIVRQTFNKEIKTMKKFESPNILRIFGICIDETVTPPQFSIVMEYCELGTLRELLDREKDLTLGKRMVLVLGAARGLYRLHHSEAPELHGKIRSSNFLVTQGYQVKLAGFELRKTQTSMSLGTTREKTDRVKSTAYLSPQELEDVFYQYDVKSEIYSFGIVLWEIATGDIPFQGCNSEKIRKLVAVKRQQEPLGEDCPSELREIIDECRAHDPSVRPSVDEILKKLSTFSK
Chain of human RIPK1 (Q13546 whole entry, the tested form may be a part): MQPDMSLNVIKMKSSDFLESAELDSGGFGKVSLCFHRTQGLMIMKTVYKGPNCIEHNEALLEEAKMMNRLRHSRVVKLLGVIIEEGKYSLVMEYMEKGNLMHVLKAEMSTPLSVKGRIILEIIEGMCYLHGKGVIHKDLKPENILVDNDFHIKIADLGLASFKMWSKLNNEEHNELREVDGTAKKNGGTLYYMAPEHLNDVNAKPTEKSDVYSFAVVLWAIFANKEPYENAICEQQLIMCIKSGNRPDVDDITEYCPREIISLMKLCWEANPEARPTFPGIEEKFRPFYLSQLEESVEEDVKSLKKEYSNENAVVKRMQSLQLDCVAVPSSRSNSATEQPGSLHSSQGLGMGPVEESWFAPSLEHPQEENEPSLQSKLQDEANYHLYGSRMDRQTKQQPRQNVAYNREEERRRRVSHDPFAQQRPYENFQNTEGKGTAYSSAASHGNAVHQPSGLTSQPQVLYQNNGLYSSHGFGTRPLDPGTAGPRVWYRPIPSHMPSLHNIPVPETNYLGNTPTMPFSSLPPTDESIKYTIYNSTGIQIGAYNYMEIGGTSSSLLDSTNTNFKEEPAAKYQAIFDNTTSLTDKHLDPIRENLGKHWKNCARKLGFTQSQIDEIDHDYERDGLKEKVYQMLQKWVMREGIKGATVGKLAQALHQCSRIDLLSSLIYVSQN
Chain of mouse MLKL (full length) (Q9D2Y4 whole entry): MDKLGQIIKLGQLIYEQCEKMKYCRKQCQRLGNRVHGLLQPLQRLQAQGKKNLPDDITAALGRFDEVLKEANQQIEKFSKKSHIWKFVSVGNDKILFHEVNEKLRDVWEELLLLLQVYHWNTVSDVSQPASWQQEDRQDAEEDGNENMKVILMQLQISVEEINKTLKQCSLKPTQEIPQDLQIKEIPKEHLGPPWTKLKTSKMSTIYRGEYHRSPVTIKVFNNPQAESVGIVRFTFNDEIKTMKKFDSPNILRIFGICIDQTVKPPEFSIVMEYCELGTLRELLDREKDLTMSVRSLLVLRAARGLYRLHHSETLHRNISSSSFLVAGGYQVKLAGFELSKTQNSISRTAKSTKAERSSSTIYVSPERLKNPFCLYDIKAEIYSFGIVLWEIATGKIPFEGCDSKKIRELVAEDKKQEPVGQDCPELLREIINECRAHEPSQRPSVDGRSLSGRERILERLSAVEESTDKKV

Kd [1] [nM]	Kd [2] [nM]	Kd [3] [nM]	SMILES
> 10000		1 to 100	C[C@H](Oc1cc(-c2nn(C)c3c(-c4ccc5c(cnn5C)c4)cnc(N)c23)ccc1NS(=O)(=O)C(F)F)c1ccc(F)cc1 [Compound 166, (S)-N-(4-(4-amino-1-methyl-7-(1-methyl-1H-indazol-5-yl)-1H-pyrazolo[4,3-c]pyridin-3-yl)-2-(1-(4-fluorophenyl)ethoxy)phenyl)-1,1-difluoromethanesulfonamide]
> 10000		1 to 100	C[C@H](Oc1cc(-c2nn(C)c3c(-c4cnn(C5CCN(CC(F)(F)F)C(C)(C)C5)c4)cnc(N)c23)ccc1NS(=O)(=O)C(F)F)c1ccc(F)cc1 (stereo partly drawn) [Compound 167, N-(4-(4-amino-7-(1-(2,2-dimethyl-1-(2,2,2-trifluoroethyl)piperidin-4-yl)-1H-pyrazol-4-yl)-1-methyl-1H-pyrazolo[4,3-c]pyridin-3-yl)-2-((S)-1-(4-fluorophenyl)ethoxy)phenyl)-1,1-difluoromethanesulfonamide]
> 10000		1 to 100	CC1CN(C)CC(C)C1n1cc(-c2cnc(N)c3c(-c4ccc(NS(=O)(=O)C(F)F)c(O[C@@H](C)c5ccc(F)cc5)c4)nn(C)c23)cn1 (stereo partly drawn) [Compound 172, N-(4-{4-amino-1-methyl-7-[1-(1,3,5-trimethylpiperidin-4-yl)-1H-pyrazol-4-yl]-1H-pyrazolo[4,3-c]pyridin-3-yl}-2-[(1S)-1-(4-fluorophenyl)ethoxy]phenyl)-1,1-difluoromethanesulfonamide]

More lines, now with the values behind:

SMILES	Kd [1] [nM]	Kd [2] [nM]	Kd [3] [nM]
Cn1nc(-c2ccc(NS(=O)(=O)C(F)F)c(OCc3ccc(F)cc3)c2)c2c(N)ncc(-c3cnn(C4CCOCC4)c3)c21 [Compound 13, N-(4-(4-amino-1-methyl-7-(1-(tetrahydro-2H-pyran-4-yl)-1H-pyrazol-4-yl)-1H-pyrazolo[4,3-c]pyridin-3-yl)-2-((4-fluorobenzyl)oxy)phenyl)-1,1-difluoromethanesulfonamide]	> 10000	< 1	< 1
C[C@H](Oc1cc(-c2nn(C)c3c(-c4cnn(C5CCOCC5)c4)cnc(N)c23)ccc1NS(=O)(=O)C(F)F)c1ccc(F)cc1 [Compound 19, (S)-N-(4-(4-amino-1-methyl-7-(1-(tetrahydro-2H-pyran-4-yl)-1H-pyrazol-4-yl)-1H-pyrazolo[4,3-c]pyridin-3-yl)-2-(1-(4-fluorophenyl)ethoxy)phenyl)-1,1-difluoromethanesulfonamide]	> 10000	< 1	< 1
C[C@H](Oc1cc(-c2nn(C)c3c(-c4cnn(C5CC(C)(C)N(C)C(C)(C)C5)c4)cnc(N)c23)ccc1NS(=O)(=O)C(F)F)c1ccc(F)cc1 [Compound 162, (S)-N-(4-(4-amino-1-methyl-7-(1-(1,2,2,6,6-pentamethylpiperidin-4-yl)-1H-pyrazol-4-yl)-1H-pyrazolo[4,3-c]pyridin-3-yl)-2-(1-(4-fluorophenyl)ethoxy)phenyl)-1,1-difluoromethanesulfonamide]	> 10000		< 1
C[C@H](Oc1cc(-c2nn(C)c3c(-c4cnn(C5C[C@H]6CNC[C@H]6C5)c4)cnc(N)c23)ccc1NS(=O)(=O)C(F)F)c1ccc(F)cc1 (stereo partly drawn) [Compound 163, N-(4-(4-amino-1-methyl-7-(1-((3aR,6aS)-octahydrocyclopenta[c]pyrrol-5-yl)-1H-pyrazol-4-yl)-1H-pyrazolo[4,3-c]pyridin-3-yl)-2-((S)-1-(4-fluorophenyl)ethoxy)phenyl)-1,1-difluoromethanesulfonamide]	> 10000		< 1
C[C@H](Oc1cc(-c2nn(C)c3c(-c4cnn(C5C[C@@H]6CN(C)C[C@@H]6C5)c4)cnc(N)c23)ccc1NS(=O)(=O)C(F)F)c1ccc(F)cc1 (stereo partly drawn) [Compound 164, N-(4-(4-amino-1-methyl-7-(1-((3aR,6aS)-2-methyloctahydrocyclopenta[c]pyrrol-5-yl)-1H-pyrazol-4-yl)-1H-pyrazolo[4,3-c]pyridin-3-yl)-2-((S)-1-(4-fluorophenyl)ethoxy)phenyl)-1,1-difluoromethanesulfonamide]	> 10000		< 1
